Series [1] has as its target T1, Histone deacetylase 2 (Homo sapiens, UniProt Q92769). The series is described as follows: Inhibition of full length recombinant C-terminal FLAG-tagged human HDAC2 expressed in baculovirus-infected Sf9 cells at 1 mM measured for 2 hrs by fluorescence-based assay relative to control.
Series [2] has as its target T1, Histone deacetylase 2. Description: Inhibition of full length recombinant C-terminal FLAG-tagged human HDAC2 expressed in baculovirus-infected Sf9 cells measured for 2 hrs by fluorescence-based assay.
Series [3] concerns the target T1, Histone deacetylase 2. The series is described as follows: Inhibition of full length recombinant C-terminal FLAG-tagged human HDAC2 expressed in baculovirus-infected Sf9 cells at 2 mM measured for 2 hrs by fluorescence-based assay relative to control.
Series [4] concerns SK-N-SH. The series is described as follows: Inhibition of […] in human SK-N-SH cells assessed as increase in histone H3K9 acetylation level at 3 to 12 uM measured after 48 hrs by immunochemical detection based analysis. The format is cell-based. Particulars: dose 3-12 µM.
The test system of series [5] is SK-N-SH. The series is described as follows: Inhibition of […] in human SK-N-SH cells assessed as increase in histone H4K12 acetylation level at 3 to 12 uM measured after 48 hrs by immunochemical detection based analysis. As to conditions: dose 3-12 µM. The format is cell-based.
A short description of series [6]: Cmax in C57BL/6 mouse plasma at 30 mg/kg, po measured upto 24 hrs by LC-ESI-MS/MS analysis. The format is ADME, organism-based. Also noted: time < 24 hrs, dose 30 mg/kg, route po.
Series [7] can be described thus: Cmax in C57BL/6 mouse plasma at 100 mg/kg, po measured upto 24 hrs by LC-ESI-MS/MS analysis. The format is ADME, organism-based. Also noted: time < 24 hrs, dose 100 mg/kg, route po.
Series [8] in a line: Cmax in C57BL/6 mouse brain at 30 mg/kg, po measured upto 24 hrs by LC-ESI-MS/MS analysis. The format is ADME, organism-based. Also noted: dose 30 mg/kg, time < 24 hrs, route po.
Series [9] can be described thus: Cmax in C57BL/6 mouse brain at 100 mg/kg, po measured upto 6 hrs by LC-ESI-MS/MS analysis. The format is ADME, organism-based. Also noted: dose 100 mg/kg, time < 6 hrs, route po.
The nature of series [10]: AUC (0 to infinity) in C57BL/6 mouse plasma at 30 mg/kg, po measured upto 24 hrs by LC-ESI-MS/MS analysis. The format is ADME, organism-based. Also noted: time < 24 hrs, dose 30 mg/kg, route po.
Series [11] can be described thus: AUC (0 to infinity) in C57BL/6 mouse plasma at 100 mg/kg, po measured upto 24 hrs by LC-ESI-MS/MS analysis. The format is ADME, organism-based. Also noted: time < 24 hrs, dose 100 mg/kg, route po.
A short description of series [12]: AUC (0 to infinity) in C57BL/6 mouse brain at 30 mg/kg, po measured upto 24 hrs by LC-ESI-MS/MS analysis. The format is ADME, organism-based. Also noted: dose 30 mg/kg, time < 24 hrs, route po. As to conditions: in vivo.
Series [13] in a line: AUC (0 to infinity) in C57BL/6 mouse brain at 100 mg/kg, po measured upto 6 hrs by LC-ESI-MS/MS analysis. The format is ADME, organism-based. Also noted: dose 100 mg/kg, time < 6 hrs, route po. Particulars: in vivo.
Series [14] is described as follows: Half life in C57BL/6 mouse plasma at 30 mg/kg, po measured upto 24 hrs by LC-ESI-MS/MS analysis. The format is ADME, organism-based.
Series [15] can be described thus: Half life in C57BL/6 mouse plasma at 100 mg/kg, po measured upto 24 hrs by LC-ESI-MS/MS analysis. The format is ADME, organism-based.
The nature of series [16]: Half life in C57BL/6 mouse brain at 30 mg/kg, po measured upto 24 hrs by LC-ESI-MS/MS analysis. The format is ADME, organism-based.
A short description of series [17]: Half life in C57BL/6 mouse brain at 100 mg/kg, po measured upto 6 hrs by LC-ESI-MS/MS analysis. The format is ADME, organism-based.
The nature of series [18]: Unbound brain-to-plasma concentration ratio in C57BL/6 mouse by LC-MS/MS analysis. The format is ADME. As to conditions: read-out: K(p,uu,brain).
Series [19] concerns Mus musculus. Description: In vivo inhibition of HDAC2 in C57BL/6 mouse assessed as increase in histone H4K12 acetylation in brain at 100 mg/kg, po measured after 4 hrs by immunochemical detection method. The format is functional, organism-based.
A short description of series [20]: Lipophilicity, log D of the compound at pH 7.4. The format is physicochemical. Particulars: buffer.

pIC50: −log10 of the molar value. The source made the active and inactive calls. The calls are words filed in the database; no cut-off is given here.

T1 sequence (Q92769 whole entry): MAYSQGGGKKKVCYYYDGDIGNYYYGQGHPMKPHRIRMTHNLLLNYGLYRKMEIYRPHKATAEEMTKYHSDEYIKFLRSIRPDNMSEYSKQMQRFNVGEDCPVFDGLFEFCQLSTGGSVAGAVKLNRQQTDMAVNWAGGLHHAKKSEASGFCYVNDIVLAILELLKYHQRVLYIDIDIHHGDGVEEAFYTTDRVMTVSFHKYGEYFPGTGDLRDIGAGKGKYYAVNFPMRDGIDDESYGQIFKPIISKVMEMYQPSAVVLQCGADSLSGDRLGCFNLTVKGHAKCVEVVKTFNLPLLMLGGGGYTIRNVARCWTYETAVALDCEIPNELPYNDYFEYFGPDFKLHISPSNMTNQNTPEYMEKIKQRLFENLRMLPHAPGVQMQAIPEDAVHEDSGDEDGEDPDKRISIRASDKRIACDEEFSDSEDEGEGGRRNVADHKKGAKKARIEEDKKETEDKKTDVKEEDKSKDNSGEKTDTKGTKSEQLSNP

Take `Cc1cc(O)cc(=O)o1`: in series [1], the inhibition is 4%.
Turning to `O=C([C@H]1C[C@@H](c2cccc(Cl)c2)CN1)N1Cc2ccccc2C1`, in series [2], the negative logarithm of the IC50 (pIC50) was 5.55.
For `CN(C)C(=O)C(N)Cc1ccc(F)cc1` (centres undefined), in series [1], the inhibition was found to be 58%. Moreover, in series [2], the pIC50 is 3.00.
Consider `O=C1CCC(c2ccc([C@H]3CN[C@@H](C(=O)N4Cc5ccccc5C4)C3)cc2)N1` (stereo in doubt; 10), for which the negative-log IC50 (pIC50) in [2] was 4.59.
For the compound `CN(C)C(=O)[C@H](N)CCc1ccccc1`, in series [3], the inhibition worked out at 64%.
As to `N#Cc1cccnc1N1CCN(C(=O)[C@H]2C[C@@H](c3cccc(Cl)c3)CN2)CC1`, the negative logarithm of the IC50 (pIC50) in series [2] is 6.07.
Take `O=C([C@H]1C[C@@H](c2ccccc2)CN1)N1Cc2ccccc2C1`: in series [2], the pIC50 was 5.19.
Turning to `N#Cc1cccnc1N1CCN(C(=O)[C@H]2C[C@@H](c3ccccc3)CN2)CC1`, in series [2], the negative logarithm of the IC50 (pIC50) is 5.74.
On the same count and under the same terms, with `O=C1CCC(c2ccc([C@H]3CN[C@@H](C(=O)N4Cc5ccccc5C4)C3)cc2)N1` (stereo in doubt; 11) the figure was 4.74; with `N[C@H](CCc1ccccc1)C(=O)N1CCCC1`, 3.96.
Consider `O=C([C@H]1C[C@@H](c2ccccc2)CN1)N1CCCC1`, for which, in [2], the pIC50 was 4.59.
`O=C([C@H]1C[C@@H](c2ccc(Cl)cc2)CN1)N1Cc2ccccc2C1`: in [2], the pIC50 is 5.40.
Consider `O=C(O)Cc1ccccc1`, for which, in series [1], the inhibition came to 40%.
On to `O=C([C@H]1C[C@@H](c2cccc(Cl)c2)CN1)N1CCN(c2nccc3ccsc23)CC1`, for which the inhibition entry in series [4], in [5] and in series [19] was “Active” in each case. Further, the pIC50 in [2] is 6.30. The Cmax turned out to be 2.4 µg/mL in series [6], 4 µg/mL in [7], 2300 ng/g in [8] and 3400 ng/g in series [9]. Further, the results for the total exposure AUC(0-inf) in [10] and in [11] were 4.2 µg·h/mL and 18.5 µg·h/mL, respectively. Besides, the AUC in series [12] worked out at 4 µg·h/g; in series [13] it was 13.1 µg·h/g. Moreover, the half-life in [14] was 1.1 h; in series [15], 3.5 h; in series [16] it was 0.9 h; in series [17] it was 2.7 h. For the same compound, the Kp uu in [18] was 0.36. The pH-dependent lipophilicity (logD) in series [20] was found to be 3.9.
On to `O=C1CCC(c2ccc(Cl)cc2)N1` (centres undefined), for which, in series [1], the inhibition is 9%.
On to `O=C([C@H]1C[C@@H](c2ccccc2)CN1)N1CCN(c2nccc3ccsc23)CC1`, for which the negative logarithm of the IC50 (pIC50) in [2] was 5.77.

(Values after ChEMBL document CHEMBL5113540, “Fragment-Based Discovery of a Novel, Brain Penetrant, Orally Active HDAC2 Inhibitor” (ACS Med Chem Lett, 2022).)
